Data on 73 compounds can be found in patent publication US10278942B2 (PELOTON THERAPEUTICS, INC., priority 2015, dated 2019).

Structures are written as SMILES.

In general, IC50 refers to the midpoint of a concentration-inhibition curve.

T1 sequence (Q99814 240-350 limits assumed): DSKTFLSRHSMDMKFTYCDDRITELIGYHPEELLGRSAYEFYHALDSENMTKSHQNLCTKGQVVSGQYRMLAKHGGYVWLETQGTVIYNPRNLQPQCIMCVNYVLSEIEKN

One experiment has as its target T1, HIF-2α HIS TAG-PASB Domain (Homo sapiens, UniProt Q99814).
T1 construct: 100 nM HIF-2α HIS TAG-PASB Domain
Kind of experiment: HIF-2α Scintillation Proximity Assay (SPA). The following applies: Scintillation Proximity Assay IC50 (nM). In kind it is binding. The protocol:
The total assay volume was about 100 μL in the following configuration: 2 μL compound in 100% DMSO, 88 μL buffer with protein and probe and 10 μL of SPA beads. […] The percent inhibition was determined and IC50 values were calculated using the Dotmatics system based on the following equation: % inhibition=[(high control−sample)/(high control−low control)]×100.
(Scintillation proximity formats need no separation of bound from free tracer.)
`COC(=O)c1cc(S(=O)(=O)C(F)(F)F)ccc1Oc1cc(F)cc(Cl)c1` [Compound 121] had an IC50 above 1000 nM.
Compound `NC(=O)c1cc(S(=O)(=O)C(F)(F)F)ccc1Oc1cc(F)cc(Cl)c1` [Compound 125] displayed an IC50 above 1000 nM.
Consider `CS(=O)(=O)c1ccc(Oc2cc(F)cc(Cl)c2)c(Br)c1` [Compound 138], for which the IC50 is above 1000 nM.
The compound `Cc1c(Oc2cc(F)cc(Cl)c2)ccc2c1C(O)C(F)(F)S2(=O)=O` (stereo not shown) [Compound 359] returned an IC50 below 50 nM.
Compound `O=S1(=O)CCC(O)c2c1ccc(Oc1cc(F)cc(F)c1)c2C(F)F` (stereo not shown) [Compound 402] showed an IC50 above 1000 nM.

The same experiment, now with this note: read-out: Scintillation Proximity Assay IC50.
Regarding `CNS(=O)(=O)c1ccc(Oc2cc(F)cc(F)c2)c2c1C(O)CC2` (stereo not shown) [Compound 211], the IC50 was above 1000 nM.
Consider `CN(C)CCOc1ccc(S(=O)(=O)C(F)(F)F)c2c1CC(F)(F)C2O` (stereo not shown) [Compound 641], for which the IC50 is above 1000 nM.
Turning to `N#Cc1cc(F)cc(Oc2ccc(S(=O)(=O)C(F)F)c(C#N)c2Br)c1` [Compound 77], the IC50 was above 1000 nM.
In the case of `O=S(=O)(c1ccc(OC2CCC(O)CC2)c2c1C(O)CC2)C(F)(F)F` (stereo not shown) [Compound 615], the IC50 was above 1000 nM.
For the compound `N#CN=S(=O)(CF)c1ccc(Oc2cc(F)cc(C#N)c2)c2c1[C@H](O)C(F)(F)C2` (stereo partly shown) [Compound 286], the IC50 is below 50 nM.
For the compound `CS(=O)(=O)c1ccc(Oc2cc(F)cc(Cl)c2)c2c1C(O)CC2CO` (stereo not shown) [Compound 281], the IC50 fell in the range of 250 to 1000 nM.
As for `C=C1CC(O)c2c(S(C)(=O)=O)ccc(Oc3cc(F)cc(Cl)c3)c21` (stereo not shown) [Compound 280], the IC50 was above 1000 nM.
Regarding `CS(=O)(=O)c1ccc(O[C@H]2CC[C@H](C#N)CC2)c2c1[C@H](O)C(F)(F)[C@@H]2F` [Compound 757], the half-inhibitory concentration (IC50) is above 1000 nM.
Turning to `N#Cc1c(Oc2cc(F)cc(Cl)c2)ccc(S(=O)(=O)C(F)(F)F)c1NCCO` [Compound 154], the IC50 is above 1000 nM.
On to `CS(=O)(=O)c1ccc(Oc2cncc(C#N)c2)c2c1[C@H](O)C(F)(F)[C@H]2F` [Compound 343], for which the half-inhibitory concentration (IC50) was above 1000 nM.
Same read-out and setting: next, `O=S(=O)(c1ccc(Oc2cc(F)cc(F)c2)c2c1C(CO)CC2)C(F)F` (stereo not shown) [Compound 24]: 250 to 1000 nM; `O=S(=O)(c1ccc(Oc2cc(F)cc(Cl)c2)c(Br)c1CNCCO)C(F)(F)F` [Compound 108]: above 1000 nM; `N#Cc1cncc(Oc2ccc(S(=O)(=O)C(F)F)c3c2CC[C@H]3O)c1` [Compound 4]: above 1000 nM.
With `CC1(C)CCC(=O)[C@@H](c2ccc(S(=O)(=O)C(F)(F)F)c3c2CC(F)(F)[C@H]3O)C1` [Compound 546], the IC50 is above 1000 nM.
Take `O=S(=O)(c1ccc(OCCO)c2c1C(O)CC2)C(F)(F)F` (stereo not shown) [Compound 613]: the IC50 was above 1000 nM.
On to `OC1c2c(-c3cn[nH]c3)ccc(OCC(F)F)c2CC1(F)F` (stereo not shown) [Compound 684], for which the IC50 was above 1000 nM.
On to `O=S(=O)(c1ccc(C(O)CO)c2c1[C@H](O)C(F)(F)C2)C(F)(F)F` (stereo partly shown) [Compound 533], for which the half-inhibitory concentration (IC50) was above 1000 nM.
On the same count and under the same terms, the same measure for `CC1(COc2ccc(S(=O)(=O)C(F)(F)F)c3c2CCC3O)COC1` (stereo not shown) [Compound 621]: above 1000 nM.
In the case of `O=S(=O)(c1ccc(OC2CCc3ncccc32)c2c1[C@H](O)C(F)(F)C2)C(F)(F)F` (stereo partly shown) [Compound 733], the IC50 was above 1000 nM.
For `O/N=C1/c2c(C(F)(F)F)ccc(OCCCF)c2[C@@H](F)C1(F)F` [Compound 700], the IC50 was in the range of 50 to 249 nM.
Still for that read-out and setting: next, `COc1ccc(S(=O)(=O)C(F)(F)F)c2c1CCC2O` (stereo not shown) [Compound 588]: above 1000 nM.
Consider `Cn1cc(-c2ccc(S(=O)(=O)C(F)(F)F)c3c2CC(F)(F)[C@H]3O)cn1` [Compound 566], for which the IC50 was above 1000 nM.
For `O/N=C1/c2c(C(F)(F)F)ccc(OCCCF)c2CC1(F)F` [Compound 702], the IC50 is above 1000 nM.
Take `Cc1ccc(Cl)cc1Oc1ccc(S(=O)(=O)C(F)(F)F)cc1Br` [Compound 174]: the IC50 is above 1000 nM.
Consider `CC1(C)C(O)c2c(ccc(Oc3cc(F)cc(Cl)c3)c2C#N)S1(=O)=O` (stereo not shown) [Compound 408], for which the IC50 is above 1000 nM.
Same read-out and setting: next, `O=S(=O)(c1ccc(CC2CCCCC2)c2c1C(O)CC2)C(F)(F)F` (stereo not shown) [Compound 508]: above 1000 nM; `C=CCC1(O)c2c(S(=O)(=O)C(F)F)ccc(Oc3cc(F)cc(F)c3)c2CC1(F)F` (stereo not shown) [Compound 12]: above 1000 nM.
Take `O=[N+]([O-])c1c(Oc2cccc(Cl)c2)ccc(C(F)(F)F)c1Cl` [Compound 204]: the IC50 lay in the range of 50 to 249 nM.
In the case of `CS(=O)(=O)CCCOc1ccc(S(=O)(=O)C(F)(F)F)c2c1CC(F)(F)C2O` (stereo not shown) [Compound 631], the IC50 is above 1000 nM.
The same measure, in the same setting: next, `CS(=O)(=O)c1ccc(Oc2cncc(Cl)c2)c2c1[C@H](O)C(F)(F)[C@@H]2F` [Compound 331]: below 50 nM; `CC1CC(Oc2ccc(S(=O)(=O)C(F)(F)F)c3c2CCC3O)CCO1` (stereo not shown) [Compound 624]: above 1000 nM; `N#Cc1c(Oc2cc(F)cc(Cl)c2)ccc2c1CCS2(=O)=O` [Compound 351]: above 1000 nM.
Take `O=S(=O)(c1ccc(Sc2cc(F)cc(Cl)c2)c2c1[C@H](O)CC2)C(F)F` [Compound 493, (R)-4-((3-chloro-5-fluorophenyl)thio)-7-((difluoromethyl)sulfonyl)-2,3-dihydro-1H-inden-1-ol]: the IC50 is above 1000 nM.
For the compound `NC1CS(=O)(=O)c2ccc(Oc3cc(F)cc(F)c3)c(C(F)F)c21` (stereo not shown) [Compound 367], the 50% inhibitory concentration (IC50) is above 1000 nM.
For `CS(=O)(=O)c1ccc(Oc2cncc(Br)c2)c2c1C(=O)C(F)(F)C2` [Compound 323], the IC50 is above 1000 nM.
Regarding `O=C1CS(=O)(=O)c2ccc(Oc3cc(F)cc(F)c3)cc21` [Compound 417], the IC50 was above 1000 nM.
Still for that read-out and setting: the same measure for `N#Cc1cncc(Oc2ccc(S(N)(=O)=O)c3c2[C@@H](F)C(F)(F)[C@H]3O)c1` [Compound 340]: below 50 nM; for `CS(=O)(=O)c1ccc(Oc2cc(F)cc(C#N)c2)c2c1C(O)C1(CC1)C2` (stereo not shown) [Compound 217]: above 1000 nM.
Same read-out and setting: next, `CS(=O)(=NC#N)c1ccc(Oc2cc(F)cc(C#N)c2)c2c1[C@H](O)C(F)(F)[C@H]2F` (stereo partly shown) [Compound 318]: above 1000 nM.
As for `Fc1cc(Cl)cc(Oc2ccc(C(F)(F)F)c(Cl)c2Br)c1` [Compound 97], the IC50 is above 1000 nM.
The same measure, in the same setting: next, `OC1c2c(F)ccc(OCC(F)F)c2CC1(F)F` (stereo not shown) [Compound 652]: above 1000 nM.
Consider `O=S(=O)(c1ccc(Oc2cc(F)cc(Cl)c2)c(CCO)c1)C(F)(F)F` [Compound 127], for which the IC50 is above 1000 nM.
In the case of `C=CCN=S(=O)(c1ccc(Oc2cc(F)cc(C#N)c2)c2c1[C@H](O)C(F)(F)C2)C(F)(F)F` (stereo partly shown) [Compound 308], the IC50 lay within 50 to 249 nM.
The same measure, in the same setting: next, `CC(Oc1ccc(S(=O)(=O)C(F)(F)F)c2c1CC(F)(F)C2O)c1ccccc1` (stereo not shown) [Compound 664]: above 1000 nM.
With `N#Cc1cc(Oc2ccc(S(=O)(=O)C(F)F)c3c2CC(F)(F)C3=O)ccc1F` [Compound 199], the IC50 is above 1000 nM.
Consider `N=S(=O)(c1ccc(Oc2cc(F)cc(Cl)c2)c(Br)c1)C(F)(F)F` (stereo not shown) [Compound 71], for which the IC50 lay within 250 to 1000 nM.
For `N#Cc1cc(F)cc(Oc2ccc(S(=O)(=O)C(F)(F)F)c3c2CC(F)C3N)c1` (stereo not shown) [Compound 268], the IC50 was above 1000 nM.
Turning to `N#Cc1c(Oc2cc(F)cc(Cl)c2)ccc2c1C(O)CS2(=O)=O` (stereo not shown) [Compound 353], the IC50 is 50 to 249 nM.
On to `CCCOc1ccc(S(=O)(=O)C(F)(F)F)c2c1CCC2O` (stereo not shown) [Compound 583], for which the IC50 is above 1000 nM.
As to `CN(C)C(=O)COc1ccc(S(=O)(=O)C(F)(F)F)c2c1CC(F)(F)C2O` (stereo not shown) [Compound 632], the IC50 was above 1000 nM.
As for `O=S1(=O)C[C@H](O)c2c1ccc(Oc1cc(F)cc(F)c1)c2Br` [Compound 413], the concentration for half-maximal inhibition (IC50) was above 1000 nM.
For the compound `CN1CCC(Oc2ccc(S(=O)(=O)C(F)(F)F)c3c2CC(F)(F)C3O)C1` (stereo not shown) [Compound 642], the IC50 is above 1000 nM.
`O=S(=O)(c1ccc(NCc2cccs2)c2c1[C@H](O)C(F)(F)C2)C(F)F` [Compound 528]: the IC50 is above 1000 nM.
Same read-out and setting: next, `CS(=O)(=O)c1ccc(Oc2cc(F)cc(C#N)c2)c2c1[C@H](O)C(F)(F)[C@H]2O` [Compound 311]: above 1000 nM; `NC1CCc2c(Oc3cc(F)cc(F)c3)ccc(S(=O)(=O)C(F)F)c21` (stereo not shown) [Compound 19]: above 1000 nM.
For the compound `N#Cc1cc(F)cc(Oc2ccc3c(c2C(F)F)[C@H](N)C(F)(F)S3(=O)=O)c1` [Compound 384], the IC50 was above 1000 nM.
In the case of `CS(=O)(=O)c1ccc(C(F)(F)CO)c2c1[C@H](O)C(F)(F)C2` [Compound 556], the IC50 is above 1000 nM.
Same read-out and setting: the same measure for `COC(=O)c1c([S+]([O-])C(F)F)ccc(Oc2cc(F)cc(Cl)c2)c1Br` (stereo not shown) [Compound 82]: above 1000 nM.
On to `N#Cc1cc(F)cc(Oc2ccc(S(N)(=O)=O)c3c2[C@@H](O)C(F)(F)[C@H]3O)c1` [Compound 337], for which the 50% inhibitory concentration (IC50) is above 1000 nM.
Take `CS(=O)(=O)c1ccc(C(F)(F)CO)c2c1C(O)C(F)(F)C2` (stereo not shown) [Compound 555]: the IC50 is above 1000 nM.
On the same count and under the same terms, the same measure for `N#Cc1ccc(OCC(F)F)c2c1[C@H](O)C(F)(F)C2` [Compound 688]: above 1000 nM.
Turning to `N#Cc1c(S(=O)(=O)C(F)F)ccc(Oc2cc(F)cc(Cl)c2)c1Br` [Compound 76], the IC50 fell in the range of 250 to 1000 nM.
Regarding `N#Cc1cc(F)cc(Oc2ccc3c(c2C#CCF)C(O)C(F)(F)S3(=O)=O)c1` (stereo not shown) [Compound 410], the half-maximal inhibitory concentration (IC50) is above 1000 nM.
Take `O=S(=O)(c1ccc(Oc2cc(F)cc(Cl)c2)c2c1COC2O)C(F)F` (stereo not shown) [Compound 88]: the concentration for half-maximal inhibition (IC50) was above 1000 nM.
Same read-out and setting: the same measure for `O=S(=O)(c1ccc(Oc2cncc(Cl)c2)c2c1[C@H](O)CC2)C(F)(F)F` [Compound 184]: 250 to 1000 nM.
As for `O=S1(=O)CCc2c1ccc(Oc1cc(F)cc(Cl)c1)c2Br` [Compound 350], the IC50 is above 1000 nM.
In the case of `CS(=O)(=O)c1cc(F)c(Oc2cc(F)cc(C#N)c2)c2c1C(O)C(F)(F)C2` (stereo not shown) [Compound 219], the IC50 was above 1000 nM.
For the compound `CN1CCCC(Oc2ccc(S(=O)(=O)C(F)(F)F)c3c2CC(F)(F)C3O)C1` (stereo not shown) [Compound 634], the IC50 is above 1000 nM.
